In patent publication US7951812B2, “Substituted pyrrolo[2,3-d]pyrimidines as antifolates” (Chelsea Therapeutics, Inc., priority 2007, dated 2011):
Structures can show the parent of a compound that is named as a salt.

Tests used:
Type in all cases: biochemical
[1] = molecular target: T1, DHFR in CCRF-CEM human leukemia cells (Homo sapiens, UniProt P00374); test: DHFR enzyme inhibition assay; details: DHFR from CCRF-CEM cells, pre-incubation with NADPH 3 minutes at 37° C.
T1 construct: endogenous in cells; host or cells: CCRF-CEM
T1 sequence (P00374 1-187): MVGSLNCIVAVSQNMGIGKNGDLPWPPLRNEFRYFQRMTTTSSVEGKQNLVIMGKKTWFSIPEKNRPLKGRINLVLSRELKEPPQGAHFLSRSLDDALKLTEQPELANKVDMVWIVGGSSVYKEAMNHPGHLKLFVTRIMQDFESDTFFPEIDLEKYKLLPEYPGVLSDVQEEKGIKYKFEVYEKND

[2] = molecular target: T2, TS in CCRF-CEM human T-lymphoblastic leukemia cells (Homo sapiens, UniProt P04818); test: TS enzyme inhibition assay; details: TS from CCRF-CEM cells, up to five graded concentrations; read-out: IC50 against TS
T2 construct: endogenous in cells; host or cells: CCRF-CEM
T2 sequence (P04818 whole entry): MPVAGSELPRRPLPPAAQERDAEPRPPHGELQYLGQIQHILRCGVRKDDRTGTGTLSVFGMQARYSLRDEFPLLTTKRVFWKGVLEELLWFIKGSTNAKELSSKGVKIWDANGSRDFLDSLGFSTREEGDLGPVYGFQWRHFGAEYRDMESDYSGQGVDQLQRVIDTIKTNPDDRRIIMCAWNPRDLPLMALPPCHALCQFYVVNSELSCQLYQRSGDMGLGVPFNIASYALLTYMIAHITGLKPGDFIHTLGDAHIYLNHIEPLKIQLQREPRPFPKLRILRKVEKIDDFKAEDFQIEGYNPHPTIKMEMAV
Method: The inhibitory potency against TS in CCRF-CEM human T-lymphoblastic leukemia cells was assessed by introducing up to five graded concentrations of compounds into the reaction mixture, initiating the reaction by addition of TS, and quantitating remaining TS activity.

AICART = AICART (Homo sapiens, UniProt P31939); test: AICART inhibition (similar tests); details: read-out: IC50 against AICART
AICART, sequence (P31939 whole entry): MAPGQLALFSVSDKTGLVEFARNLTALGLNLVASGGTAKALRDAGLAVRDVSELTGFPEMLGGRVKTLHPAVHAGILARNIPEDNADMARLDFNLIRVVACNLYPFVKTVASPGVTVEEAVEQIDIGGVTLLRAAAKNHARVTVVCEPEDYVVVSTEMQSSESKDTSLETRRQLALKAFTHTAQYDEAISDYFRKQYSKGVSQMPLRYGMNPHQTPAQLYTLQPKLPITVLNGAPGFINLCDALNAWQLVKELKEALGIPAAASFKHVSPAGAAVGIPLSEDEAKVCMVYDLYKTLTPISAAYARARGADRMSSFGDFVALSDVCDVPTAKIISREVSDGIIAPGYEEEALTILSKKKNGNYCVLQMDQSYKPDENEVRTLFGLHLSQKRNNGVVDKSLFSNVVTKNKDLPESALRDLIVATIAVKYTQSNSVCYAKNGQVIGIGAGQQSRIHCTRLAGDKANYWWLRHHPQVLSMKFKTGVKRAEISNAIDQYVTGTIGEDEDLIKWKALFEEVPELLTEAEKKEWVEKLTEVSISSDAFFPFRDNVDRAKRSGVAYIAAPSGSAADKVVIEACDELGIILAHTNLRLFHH
Excerpt: (§1) The above data illustrates the selectivity of the novel antifolates in enzyme inhibition. […] As previously noted, such selectivity in activity can be useful for improving activity against specific conditions while avoiding undesirable side effects.

GARFT = molecular target: T3, GARFT (Homo sapiens, UniProt P22102); test: GARFT inhibition (similar tests); details: read-out: IC50 against GARFT
T3 sequence (P22102 1-1010): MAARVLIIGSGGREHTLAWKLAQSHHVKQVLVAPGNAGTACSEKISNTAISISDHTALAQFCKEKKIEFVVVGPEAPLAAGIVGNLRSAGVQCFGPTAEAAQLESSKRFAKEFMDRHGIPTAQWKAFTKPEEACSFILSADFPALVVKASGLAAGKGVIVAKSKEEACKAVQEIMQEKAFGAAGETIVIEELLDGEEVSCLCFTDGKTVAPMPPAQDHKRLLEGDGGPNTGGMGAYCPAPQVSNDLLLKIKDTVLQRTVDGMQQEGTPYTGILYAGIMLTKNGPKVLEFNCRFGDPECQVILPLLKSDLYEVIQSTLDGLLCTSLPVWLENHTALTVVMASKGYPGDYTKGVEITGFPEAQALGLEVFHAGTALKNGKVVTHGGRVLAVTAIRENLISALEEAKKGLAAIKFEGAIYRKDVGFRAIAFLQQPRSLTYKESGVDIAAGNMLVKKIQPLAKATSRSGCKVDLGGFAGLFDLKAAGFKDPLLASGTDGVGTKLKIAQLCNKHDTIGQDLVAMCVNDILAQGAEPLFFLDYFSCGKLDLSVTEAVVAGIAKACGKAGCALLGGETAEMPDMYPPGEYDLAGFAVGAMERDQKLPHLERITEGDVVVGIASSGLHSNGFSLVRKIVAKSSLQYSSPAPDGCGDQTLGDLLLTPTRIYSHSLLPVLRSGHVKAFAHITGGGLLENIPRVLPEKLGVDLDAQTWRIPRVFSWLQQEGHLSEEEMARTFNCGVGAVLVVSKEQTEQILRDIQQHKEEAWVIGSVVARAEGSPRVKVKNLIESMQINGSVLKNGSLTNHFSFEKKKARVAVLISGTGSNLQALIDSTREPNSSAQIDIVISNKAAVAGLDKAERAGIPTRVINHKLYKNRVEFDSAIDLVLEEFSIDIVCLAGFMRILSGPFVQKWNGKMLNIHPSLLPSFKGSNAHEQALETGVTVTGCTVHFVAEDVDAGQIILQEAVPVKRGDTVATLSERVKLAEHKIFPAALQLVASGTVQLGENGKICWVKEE
Excerpt: as §1

SMILES	IC50 [1] [nM]	IC50 [2] [µM]	IC50 (AICART) [µM]	IC50 (GARFT) [µM]
C=C(CC(NC(=O)c1ccc(CCc2ccc3nc(N)nc(N)c3c2)cc1)C(=O)O)C(=O)O (stereo not shown) [Mobiltrex, 2-{4-[2-(2,4-diamino-quinazolin-6-yl)-ethyl] -benzoylamino}-4-methylidene-pentanedioic acid, reference compound]	1.1	8	–	–
C=C(C[C@H](NC(=O)c1ccc(CCc2c[nH]c3nc(N)nc(N)c23)cc1)C(=O)O)C(=O)O [CHL1007, (S)-N-{4-[2-(2,4-diamino-7H-pyrrolo[2,3-d]pyrimidin-5-yl)ethyl]benzoyl}-4-methylene-L-glutamic acid disodium salt]	5.2	–	–	–
C=C(CC(NC(=O)c1ccc(CCc2c[nH]c3nc(N)nc(N)c23)cc1)C(=O)O)C(=O)O (racemic) [CHL-003, N-{4-[2-(2,4-diamino-7H-pyrrolo[2,3-d]pyrimidin-5-yl)ethyl]benzoyl}-4-methylene-glutamic acid]	12.5	> 50	> 50	> 50
